Assay results published in paper PMC10006169, “A phase I trial of LXS196, a protein kinase C (PKC) inhibitor, for metastatic uveal melanoma” (British Journal of Cancer, 2023).
Several values for one entry are separate records, joined by “and”; a condition that tells them apart may be missing. Equal values may be shown once.

How the values were obtained:
patients with MUM = assay: First cycle dose-limiting toxicities, phase I dose escalation; assay type: in vivo; conditions: for Maximum tolerated dose (MTD): BLRM and EWOC
Description: The study protocol and amendments were approved by the Independent Ethics Committee or Institutional Review Board for each centre, and all patients provided written informed consent. The study was conducted according to the principles of the Declaration of Helsinki and performed in compliance with Good Clinical Practice. All patients were aged ≥18 years old and had biopsy-proven MUM with progressive and measurable disease. […] There was no eligibility limit to the number of prior lines of therapy, including PKC inhibitors other than LXS196.
During dose escalation, patients received oral LXS196 either once daily (QD; 100–1000 mg) or twice daily (BID; 200–400 mg) in 28-day cycles until disease progression, intolerable toxicity or withdrawal of consent (Supplementary Fig. 1). Dosing was omitted on the second day of the first cycle (C1D2) to allow for longer post-dose sampling in order to better characterise PK. LXS196 was given on an empty stomach, at least 1 h before or 2 h after a meal. Dose escalation was guided by safety, PK data and a two-parameter Bayesian Logistic Regression Model (BLRM) employing escalation with overdose control (EWOC) criteria. The DLT period lasted 28 days after the first dose of LXS196. […] Upon determination of the MTD/RDE, the expansion part of the study was opened to further evaluate the safety, tolerability, PK and PD of LXS196 at the RDE in patients with MUM. No hypothesis testing was planned in this study, and therefore, no formal sample size calculation was needed. The sample size was selected to ensure the BLRM had adequate operating characteristics when selecting the MTD/RDE.
Routine safety assessments, including laboratory assessments, physical examinations, vital signs and electrocardiograms (ECGs), were conducted at regular intervals throughout the study and more frequently as needed following patient assessment by the treating physician. Adverse events (AEs) were assessed continuously according to the National Cancer Institute Common Terminology Criteria for Adverse Events (NCI-CTCAE) v4.03.

MARCKS (pMARCKS) = assay: pMARCKS in tumour biopsies (Meso Scale Discovery); assay type: in vivo, human; conditions: QD schedule
Source text: Fresh metastatic tumour biopsies were collected at baseline (prior to first dose) and on treatment at C1D15 to evaluate the modulation of PKC substrate proteins in tumours following exposure to LXS196 and to perform exploratory transcriptome and targeted DNA sequencing. Whole blood samples (peripheral blood mononuclear cells; PBMCs) were collected pre-dose on C1D1 and D15, and at various time points post-dose on C1D1, D2, D3, D15 and D16 to evaluate the modulation of PKC substrate proteins in a surrogate tissue. Owing to the exploratory nature of this phase I study, formal statistical tests were not planned to be performed. Data are presented using descriptive statistics and visualisations. Continuous variables are described with the mean and range. […]
Custom assays were developed to measure the status of the PKC pathway. In brief, tumour tissue was homogenised in lysis buffer, and total protein concentrations were determined using a bicinchoninic acid (BCA) assay (Pierce). […] Total and phosphorylated PKCdelta (PKCd; pPKCd, phosphorylated at S299) levels were determined using microcapillary electrophoresis on the Sally Sue platform (Protein Simple, San Jose, CA, USA). Area under the peaks corresponding to the target was measured and used for further calculation. […]
Total and phosphorylated MARCKS were measured in all feasible tumour biopsies. […] The normalised MARCKS is calculated as follows: […]

CC1(N)CCN(c2cccnc2NC(=O)c2nc(-c3ncccc3C(F)(F)F)cnc2N)CC1 [LXS196]
Generalised oedema DLT (patients with MUM; 100 mg QD n=3): 0 n (%) | Hypotension DLT (patients with MUM; 100 mg QD n=3): 0 n (%) | Nausea DLT (patients with MUM; 100 mg QD n=3): 0 n (%) | Neutropenia DLT (patients with MUM; 100 mg QD n=3): 0 n (%) | Total DLT events (patients with MUM; 100 mg QD n=3): 0 n (%) | Vomiting DLT (patients with MUM; 100 mg QD n=3): 0 n (%) | Generalised oedema DLT (patients with MUM; 200 mg BID n=5): 0 n (%) | Hypotension DLT (patients with MUM; 200 mg BID n=5): 0 n (%) | Nausea DLT (patients with MUM; 200 mg BID n=5): 0 n (%) | Neutropenia DLT (patients with MUM; 200 mg BID n=5): 0 n (%) | Total DLT events (patients with MUM; 200 mg BID n=5): 0 n (%) | Vomiting DLT (patients with MUM; 200 mg BID n=5): 0 n (%) | Generalised oedema DLT (patients with MUM; 200 mg QD n=4): 0 n (%) | Hypotension DLT (patients with MUM; 200 mg QD n=4): 0 n (%) | Neutropenia DLT (patients with MUM; 200 mg QD n=4): 0 n (%) | Total DLT events (patients with MUM; 200 mg QD n=4): 2 (50.0) n (%) | Nausea DLT (patients with MUM; 200 mg QD n=4, Grade 3): 1 (25.0) (Grade 3) n (%) | Vomiting DLT (patients with MUM; 200 mg QD n=4, Grade 3): 1 (25.0) (Grade 3) n (%) | Generalised oedema DLT (patients with MUM; 300 mg BID n=6): 0 n (%) | Hypotension DLT (patients with MUM; 300 mg BID n=6): 0 n (%) | Nausea DLT (patients with MUM; 300 mg BID n=6): 0 n (%) | Neutropenia DLT (patients with MUM; 300 mg BID n=6): 0 n (%) | Total DLT events (patients with MUM; 300 mg BID n=6): 0 n (%) | Vomiting DLT (patients with MUM; 300 mg BID n=6): 0 n (%) | Generalised oedema DLT (patients with MUM; 300 mg QD n=15): 0 n (%) | Hypotension DLT (patients with MUM; 300 mg QD n=15): 0 n (%) | Nausea DLT (patients with MUM; 300 mg QD n=15): 0 n (%) | Neutropenia DLT (patients with MUM; 300 mg QD n=15): 0 n (%) | Total DLT events (patients with MUM; 300 mg QD n=15): 0 n (%) | Vomiting DLT (patients with MUM; 300 mg QD n=15): 0 n (%) | Hypotension DLT (patients with MUM; 400 mg BID n=6): 1 (16.7) n (%) | Nausea DLT (patients with MUM; 400 mg BID n=6): 0 n (%) | Neutropenia DLT (patients with MUM; 400 mg BID n=6): 0 n (%) | Total DLT events (patients with MUM; 400 mg BID n=6): 2 (33.4) n (%) | Vomiting DLT (patients with MUM; 400 mg BID n=6): 0 n (%) | Generalised oedema DLT (patients with MUM; 400 mg BID n=6, Grade 3): 1 (16.7) (Grade 3) n (%) | Generalised oedema DLT (patients with MUM; 500 mg QD n=11): 0 n (%) | Nausea DLT (patients with MUM; 500 mg QD n=11): 0 n (%) | Total DLT events (patients with MUM; 500 mg QD n=11): 3 (27.3) n (%) | Vomiting DLT (patients with MUM; 500 mg QD n=11): 0 n (%) | Hypotension DLT (patients with MUM; 500 mg QD n=11, Grade 3): 2 (18.2) (Grade 3) n (%) | Neutropenia DLT (patients with MUM; 500 mg QD n=11, Grade 4): 1 (9.1) (Grade 4) n (%) | Generalised oedema DLT (patients with MUM; 800 mg QD n=1): 0 n (%) | Nausea DLT (patients with MUM; 800 mg QD n=1): 0 n (%) | Neutropenia DLT (patients with MUM; 800 mg QD n=1): 0 n (%) | Total DLT events (patients with MUM; 800 mg QD n=1): 1 (100) n (%) | Vomiting DLT (patients with MUM; 800 mg QD n=1): 0 n (%) | Hypotension DLT (patients with MUM; 800 mg QD n=1, Grade 4): 1 (100) (Grade 4) n (%) | Generalised oedema DLT (patients with MUM; 1000 mg QD n=4): 0 n (%) | Nausea DLT (patients with MUM; 1000 mg QD n=4): 0 n (%) | Neutropenia DLT (patients with MUM; 1000 mg QD n=4): 0 n (%) | Total DLT events (patients with MUM; 1000 mg QD n=4): 2 (50.0) n (%) | Vomiting DLT (patients with MUM; 1000 mg QD n=4): 0 n (%) | Hypotension DLT (patients with MUM; 1000 mg QD n=4, Grade 2 and 4): 2 (50.0) (Grade 2 and 4) n (%) | Generalised oedema DLT (patients with MUM; All BID n=17): 1 (5.9) n (%) | Hypotension DLT (patients with MUM; All BID n=17): 1 (5.9) n (%) | Nausea DLT (patients with MUM; All BID n=17): 0 n (%) | Neutropenia DLT (patients with MUM; All BID n=17): 0 n (%) | Total DLT events (patients with MUM; All BID n=17): 2 (11.8) n (%) | Vomiting DLT (patients with MUM; All BID n=17): 0 n (%) | Generalised oedema DLT (patients with MUM; All QD n=38): 0 n (%) | Hypotension DLT (patients with MUM; All QD n=38): 5 (13.2) n (%) | Nausea DLT (patients with MUM; All QD n=38): 1 (2.6) n (%) | Neutropenia DLT (patients with MUM; All QD n=38): 1 (2.6) n (%) | Total DLT events (patients with MUM; All QD n=38): 8 (21.0) n (%) | Vomiting DLT (patients with MUM; All QD n=38): 1 (2.6) n (%) | Generalised oedema DLT (patients with MUM; All patients n=55): 1.8 n (%) and 1 (1.8) n (%) | Hypotension DLT (patients with MUM; All patients n=55): 6 (10.9) n (%) | Nausea DLT (patients with MUM; All patients n=55): 1.8 n (%) and 1 (1.8) n (%) | Neutropenia DLT (patients with MUM; All patients n=55): 1.8 n (%) and 1 (1.8) n (%) | Total DLT events (patients with MUM; All patients n=55): 16.4 n (%) | Vomiting DLT (patients with MUM; All patients n=55): 1.8 n (%) and 1 (1.8) n (%) | Recommended dose for expansion (RDE) (patients with MUM; BID): 300 mg | Maximum tolerated dose (MTD) (patients with MUM; BID schedule): 400 mg | Maximum tolerated dose (MTD) (patients with MUM; QD schedule): 500 mg | Doses at which hypotension DLT occurred (patients with MUM; most common DLT): ≥ 500 mg/day | pMARCKS, mean (range) percentage change from baseline to C1D15 (normalised ratio) (MARCKS (pMARCKS)): −39.7 (−89.7, 199) %
